Test results reported in PubChem BioAssay (NCI).
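The compound was tested at five concentrations on cells cultured in 96-well plates, with a 48-hour exposure period. Here, GI50 denotes the concentration required for 50% inhibition of growth. TGI: total growth inhibition.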

Assays:
Test in all cases: growth of human tumour cells (NCI), 48 h
U251 CNS = system: U251 CNS
OVCAR-3 ovarian = system: OVCAR-3 ovarian
SF-268 CNS = system: SF-268 CNS
HOP-62 NSCLC = system: HOP-62 NSCLC
SNB-19 CNS = system: SNB-19 CNS
RXF 393 renal = system: RXF 393 renal
LOX IMVI melanoma = system: LOX IMVI melanoma
KM12 colon = system: KM12 colon
UACC-62 melanoma = system: UACC-62 melanoma
CAKI-1 renal = system: CAKI-1 renal

Row | SMILES | GI50 (U251 CNS) | TGI (U251 CNS) | GI50 (OVCAR-3 ovarian) | TGI (OVCAR-3 ovarian) | GI50 (SF-268 CNS) | TGI (SF-268 CNS) | GI50 (HOP-62 NSCLC) | TGI (HOP-62 NSCLC) | GI50 (SNB-19 CNS) | TGI (SNB-19 CNS) | GI50 (RXF 393 renal) | TGI (RXF 393 renal) | GI50 (LOX IMVI melanoma) | TGI (LOX IMVI melanoma) | GI50 (KM12 colon) | TGI (KM12 colon) | GI50 (UACC-62 melanoma) | TGI (UACC-62 melanoma) | GI50 (CAKI-1 renal) | TGI (CAKI-1 renal)
1 | N#C/C(=C/N1CCN(C(=O)c2ccco2)C1=S)C(=O)Nc1ccc(Cl)cc1 | 17.3 µM | > 50 µM | 15.5 µM | > 50 µM | 17.8 µM | 41 µM | 25.7 µM | > 50 µM | 27.6 µM | > 50 µM | 13.1 µM | 44.9 µM | 16.7 µM | > 50 µM | 16.3 µM | > 50 µM | 16.9 µM | > 50 µM | 13.2 µM | > 50 µM
2 | CC(C)C[C@H](NC(=O)Cn1cccc(CNC(=O)c2ccccc2)c1=O)B(O)O | 0.517 µM | 19.2 µM | 0.214 µM | 0.674 µM | 0.4 µM | 2.95 µM | 1.21 µM | 6.38 µM | 0.495 µM | > 100 µM | 0.316 µM | 1.1 µM | 0.244 µM | 0.811 µM | 0.649 µM | 3 µM | 0.486 µM | 3.54 µM | 3.7 µM | 44.9 µM
3 | CC1=C(CO)C(=O)O[C@@H]([C@@H](C)[C@H]2CC[C@H]3[C@@H]4C[C@H]5O[C@]56[C@@H](O)C=CC(=O)[C@]6(C)[C@H]4CC[C@]23C)C1 |  | 1.52 µM |  | 0.792 µM |  | 1.29 µM |  | 2.48 µM |  | 6.07 µM | 0.44 µM | 1.66 µM | 0.172 µM | 0.547 µM |  | 1.82 µM |  | 2.7 µM |  | 0.773 µM
4 | CCCCCCCCCCCNC=O |  | > 100 µM |  | > 100 µM |  | > 100 µM |  | > 100 µM |  | > 100 µM |  | > 100 µM |  | > 100 µM |  | > 100 µM |  | > 100 µM |  | > 100 µM
5 | Cc1ccc(S(=O)(=O)n2cc([C@@]3(O)C[C@H](CSC#N)OC3=O)c3ccccc32)cc1 | 12.8 µM | 32.7 µM | 8.81 µM | 21 µM | 5.1 µM | 19.7 µM | 25.1 µM | 57.4 µM | > 100 µM | > 100 µM | 2.13 µM | 7.61 µM | 8.83 µM | 66.4 µM | 4.65 µM | 23 µM | 15 µM | 35.5 µM | 0.0836 µM | 25.8 µM
6 | C=C(C(=O)OC)[C@@H]1CC2OC1C(=O)C(C)CCC/C(C)=C/CC[C@@]2(C)O (stereo partly specified) | 36.7 µM | > 100 µM | 15.9 µM | 48.4 µM | 39.4 µM | > 100 µM | 20.6 µM | 41.2 µM | > 100 µM | > 100 µM | 18 µM | 36.4 µM | 20.2 µM | 57.2 µM | 23.8 µM | > 100 µM | 26.1 µM | 74.9 µM | 11.4 µM | 27.6 µM
7 | O=c1cc(-c2ccccc2)[nH]c2c1CCCC2 | 4.54 µM | > 100 µM | 1.81 µM | 5.02 µM | 7.72 µM | > 100 µM | 4.51 µM | > 100 µM | 8.9 µM | > 100 µM | 1.8 µM | 5.53 µM | 5.88 µM | > 100 µM | 0.723 µM | > 100 µM | 5.91 µM | > 100 µM | 0.944 µM | > 100 µM
8 | COc1c(OC)c(OC)c2c(=O)cc(-c3ccc(OC(C)C)cc3)oc2c1OC |  | > 52 µM |  | 44.6 µM |  | > 51.8 µM |  | 37.5 µM |  | > 53.5 µM |  | > 48.7 µM |  | > 55.2 µM |  | > 100 µM |  | 32 µM |  | 35.1 µM
9 | COc1ccc2nc(C)cc(Sc3nc4ccccc4s3)c2c1 | 1 µM | 3.06 µM | 1.47 µM | 3.3 µM | 2.02 µM | 5.51 µM | 1.26 µM | 6.06 µM | 3.46 µM | 28.8 µM | 2.63 µM | 8.19 µM | 1.19 µM | 3.37 µM | 1.9 µM | 5.07 µM | 0.717 µM | 7.51 µM |  | 0.626 µM
10 | O=C1C=CC(=O)c2c1ccc1c3ccccc3n(Cc3ccccc3)c21 |  | > 100 µM |  | 33 µM |  | > 77.6 µM |  | > 100 µM |  | > 100 µM |  | 32.8 µM |  | 52.3 µM |  | > 100 µM |  | 67.8 µM |  | 32 µM
11 | Cc1cc(Cl)cc2c1NC(=O)C2(O)CC(=O)c1ccc(Br)cc1 (stereo unspecified) |  | > 100 µM |  | > 100 µM |  | > 100 µM |  | > 100 µM |  | > 100 µM |  | 56.9 µM |  | > 100 µM |  | > 100 µM |  | 56.2 µM |  | > 100 µM
12 | CN(C)CCN1C(=O)c2cccc3c(/C=C/CN4C(=O)c5cccc6cccc(c56)C4=O)ccc(c23)C1=O | 46.5 µM | > 100 µM | > 100 µM | > 100 µM | 51.5 µM | > 100 µM | 42 µM | > 100 µM | 13.9 µM | 26.9 µM | 59.2 µM | > 100 µM | 14.5 µM | 27.7 µM | > 100 µM | > 100 µM | 16.3 µM | 33.1 µM | 13.4 µM | 28.6 µM
13 | OCCCCC#Cc1ccccc1C#Cc1cccnc1 | 20.3 µM | 78.6 µM | 32.9 µM | > 100 µM | 40.3 µM | > 100 µM | 20 µM | 57.4 µM | 49.3 µM | > 100 µM | 5.95 µM | 28.6 µM | 29.6 µM | > 100 µM | 35.2 µM | > 100 µM | 35.2 µM | > 100 µM | 29.1 µM | 83.5 µM
